Test [1] has as its target T1, Recombinant human JAK2 catalytic domain (Homo sapiens, UniProt O60674).
T1 construct: Recombinant human JAK2 catalytic domain (amino acids 808-1132; catalog number PV4210); GST; purchased Invitrogen PV4210
Briefly: JAK2 inhibition assay (polyGT substrate / Ulight-JAK1 peptide assay). The class given is biochemical. Particulars: Comparative Compounds (Table VIII). Here is the method:
Recombinant human JAK2 catalytic domain (amino acids 808-1132; catalog number PV4210) was purchased from Invitrogen. 0.025 mU of JAK2 is incubated with […] polyGT substrate (Sigma catalog number P0275) in kinase reaction buffer (5 mM MOPS pH 7.5, 9 mM MgAc, 0.3 mM EDTA, 0.06% Brij and 0.6 mM DTT, 1 μM non-radioactive ATP, 0.25 μCi ^33P-gamma-ATP (GE Healthcare, catalog number AH9968) final concentrations) with or without 5 μL containing test compound or vehicle (DMSO, 1% final concentration), in a total volume of 25 μL, in a polypropylene 96-well plate (Greiner, V-bottom). After 90 min at 30° C., reactions are stopped by adding of 25 μL/well of 150 mM phosphoric acid. All of the terminated kinase reaction is transferred to prewashed (75 mM phosphoric acid) 96 well filter plates (Perkin Elmer catalog number 6005177) using a cell harvester (Perkin Elmer). Plates are washed 6 times with 300 μL per well of a 75 mM phosphoric acid solution and the bottom of the plates is sealed. 40 μL/well of Microscint-20 is added, the top of the plates is sealed and readout is performed using the Topcount (Perkin Elmer). Kinase activity is calculated by subtracting counts per min (cpm) obtained in the presence of a positive control inhibitor (10 μM staurosporine) from cpm obtained in the presence of vehicle. The ability of a test compound to inhibit this activity is determined as:
(§1) [formula] • RFU test compound=RFU determined for sample with test compound present • RFU control=RFU determined for sample with positive control inhibitor • RFU vehicle=RFU determined in the presence of vehicle
Dose dilution series are prepared for the compounds enabling the testing of dose-response effects in the JAK2 assay and the calculation of the IC50 for each compound. Each compound is routinely tested at concentration of 20 μM followed by a 1/3 serial dilution, 8 points (20 μM-6.67 μM-2.22 μM-740 nM-247 nM-82 nM-27 nM-9 nM) in a final concentration of 1% DMSO. When potency of compound series increased, more dilutions are prepared and/or the top concentration is lowered (e.g. 5 μM, 1 μM).
Recombinant human JAK2 (catalytic domain, amino acids 866-1154; catalog number PV4210) was purchased from Invitrogen. 0.0125 mU of JAK2 was incubated with 25 nM Ulight-JAK1 (tyr1023) peptide (Perkin Elmer catalog number TRF0121) in kinase reaction buffer (25 mM HEPES pH7.0, 0.01% Triton X-100, 7.5 mM MgCl2, 2 mM DTT, 7.5 μM ATP) with or without 4 μL containing test compound or vehicle (DMSO, 1% final concentration), in a total volume of 20 μL, in a white 384 Opti plate (Perkin Elmer, catalog number 6007290). After 60 min at room temperature, reactions were stopped by adding 20 μL/well of detection mixture (1× detection buffer (Perkin Elmer, catalog number CR97-100C), 0.5 nM Europium-anti-phosphotyrosine (PT66) (Perkin Elmer, catalog number AD0068), 10 mM EDTA). Readout is performed using the Envision with excitation at 320 nm and measuring emission at 615 nm (Perkin Elmer). Kinase activity was calculated by subtracting relative fluorescence units (RFU) obtained in the presence of a positive control inhibitor (10 μM staurosporine) from RFU obtained in the presence of vehicle. The ability of a test compound to inhibit this activity was determined as: Percentage inhibition=((RFU determined for sample with test compound present−RFU determined for sample with positive control inhibitor) divided by (RFU determined in the presence of vehicle−RFU determined for sample with positive control inhibitor))*100.
Dose dilution series are prepared for compound enabling the testing of dose-response effects in the JAK2 assay and the calculation of the IC50 for the compound. Each compound is routinely tested at concentration of 20 μM followed by a 1/5 serial dilution, 10 points in a final concentration of 1% DMSO. When potency of compound series increases, more dilutions are prepared and/or the top concentration are lowered (e.g. 5 μM, 1 μM). […]

Test [2] deals with T2, Recombinant human JAK1 catalytic domain (Homo sapiens, UniProt P23458).
T2 construct: Recombinant human JAK1 (catalytic domain, amino acids 866-1154; catalog number PV4774); purchased Invitrogen PV4774
In words: JAK1 inhibition assay (polyGT substrate / Ulight-JAK1 peptide assay). The test is classed as biochemical. Particulars: Comparative Compounds (Table VI). Here is the method: Recombinant human JAK1 catalytic domain (amino acids 850-1154; catalog number 08-144) was purchased from Carna Biosciences. 10 ng of JAK1 is incubated with 12.5 μg polyGT substrate (Sigma catalog number P0275) in kinase reaction buffer (15 mM Tris-HCl pH 7.5, 1 mM DTT, 0.01% Tween-20, 10 mM MgCl2, 2 μM non-radioactive ATP, 0.25 ρCi ^33P-gamma-ATP (GE Healthcare, catalog number AH9968) final concentrations) with or without 5 μL containing test compound or vehicle (DMSO, 1% final concentration), in a total volume of 25 μL, in a polypropylene 96-well plate (Greiner, V-bottom). After 45 min at 30° C., reactions are stopped by adding of 25 μL/well of 150 mM phosphoric acid. All of the terminated kinase reaction is transferred to prewashed (75 mM phosphoric acid) 96 well filter plates (Perkin Elmer catalog number 6005177) using a cell harvester (Perkin Elmer). Plates are washed 6 times with 300 μL per well of a 75 mM phosphoric acid solution and the bottom of the plates is sealed. 40 μL/well of Microscint-20 is added, the top of the plates is sealed and readout is performed using the Topcount (Perkin Elmer). Kinase activity is calculated by subtracting counts per min (cpm) obtained in the presence of a positive control inhibitor (10 μM staurosporine) from cpm obtained in the presence of vehicle. The ability of a test compound to inhibit this activity is determined as:
as §1
Dose dilution series are prepared for the compounds enabling the testing of dose-response effects in the JAK1 assay and the calculation of the IC50 for each compound. Each compound is routinely tested at concentration of 20 μM followed by a 1/3 serial dilution, 8 points (20 μM-6.67 μM-2.22 μM-740 nM-247 nM-82 nM-27 nM-9 nM) in a final concentration of 1% DMSO. When potency of compound series increased, more dilutions are prepared and/or the top concentration was lowered (e.g. 5 μM, 1 μM).
Recombinant human JAK1 (catalytic domain, amino acids 866-1154; catalog number PV4774) was purchased from Invitrogen. 1 ng of JAK1 was incubated with 20 nM Ulight-JAK1 (tyr1023) peptide (Perkin Elmer catalog number TRF0121) in kinase reaction buffer (25 mM MOPS pH6.8, 0.01% Brij-35, 5 mM MgCl2, 2 mM DTT, 7 μM ATP) with or without 4 μL containing test compound or vehicle (DMSO, 1% final concentration), in a total volume of 20 μL, in a white 384 Opti plate (Perkin Elmer, catalog number 6007290). After 60 min at room temperature, reactions were stopped by adding 20 μL/well of detection mixture (1× detection buffer (Perkin Elmer, catalog number CR97-100C), 0.5 nM Europium-anti-phosphotyrosine (PT66) (Perkin Elmer, catalog number AD0068), 10 mM EDTA). Readout is performed using the Envision with excitation at 320 nm and measuring emission at 615 nm (Perkin Elmer). Kinase activity was calculated by subtracting relative fluorescence units (RFU) obtained in the presence of a positive control inhibitor (10 μM staurosporine) from RFU obtained in the presence of vehicle. The ability of a test compound to inhibit this activity was determined as: Percentage inhibition=((RFU determined for sample with test compound present−RFU determined for sample with positive control inhibitor) divided by (RFU determined in the presence of vehicle−RFU determined for sample with positive control inhibitor))*100.
Dose dilution series were prepared for the compounds enabling the testing of dose-response effects in the JAK1 assay and the calculation of the IC50 for the compound. Each compound is routinely tested at concentration of 20 μM followed by a 1/5 serial dilution, 10 points in a final concentration of 1% DMSO. When potency of compound series increases, more dilutions are prepared and/or the top concentration are lowered (e.g. 5 μM, 1 μM). […]

T2 sequence (P23458 866-1154): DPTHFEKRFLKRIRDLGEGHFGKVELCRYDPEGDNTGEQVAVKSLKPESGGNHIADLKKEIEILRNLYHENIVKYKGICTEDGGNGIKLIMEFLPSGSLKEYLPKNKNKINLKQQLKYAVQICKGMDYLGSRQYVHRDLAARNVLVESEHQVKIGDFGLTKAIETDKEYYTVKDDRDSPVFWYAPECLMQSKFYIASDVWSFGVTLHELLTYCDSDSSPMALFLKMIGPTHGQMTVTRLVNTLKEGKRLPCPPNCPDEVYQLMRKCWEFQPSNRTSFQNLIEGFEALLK
T1 sequence (O60674 808-1132): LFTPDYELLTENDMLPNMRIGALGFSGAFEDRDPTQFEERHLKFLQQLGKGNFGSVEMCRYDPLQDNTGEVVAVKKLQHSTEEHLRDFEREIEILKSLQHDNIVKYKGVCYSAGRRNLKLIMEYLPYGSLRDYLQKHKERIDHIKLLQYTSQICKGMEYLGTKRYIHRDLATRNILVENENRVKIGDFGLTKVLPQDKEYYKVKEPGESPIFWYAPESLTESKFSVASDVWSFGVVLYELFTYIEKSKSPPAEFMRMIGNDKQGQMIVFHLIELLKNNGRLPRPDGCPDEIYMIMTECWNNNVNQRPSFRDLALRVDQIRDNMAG

As for `Cn1cnc2ccc(Nc3ccc(CC#N)cc3)cc21` [A, 2-[4-[(3-methylbenzimidazol-5-yl)amino]phenyl]acetonitrile, reference compound], the IC50 in test [1] and in test [2] was greater than 0.5 µM each time.
As for `Cn1cnc2ccc(Nc3ccc4c(c3)OCCO4)cc21` [B, reference compound], the IC50 in test [1] and in test [2] was greater than 0.5 µM each time.

For the origin of these results see patent publication US10179771B2 (GALAPAGOS NV, priority 2014, dated 2019).
